In patent publication US20250059267A1, “COMBINATION THERAPY FOR TREATMENT OF TUMORS COMPRISING CANCER-ASSOCIATED FIBROBLASTS” (PHENOMIC AI, priority 2021, published 2025):

Experiments:
Type in all cases: cell-based, human
[1] = system: fibroblasts grown in the presence of either HCT 116 cells or HT-29 cells; assay: TGF-β pathway inhibitors in fibroblast-cancer cell co-cultures (CAF activation); details: for block of CAF activation in coculture (FIG. 2B): BJ fibroblasts with HT-29 cells, TGF-β 1 ng/ml; for activity on CAF phenotypes in co-culture: identical doses to those used in the previous test
Description: (§1) FIG. 2 TGF-β inhibitors perform poorly in co-culture compared to mono-culture. (A) Normal BJ fibroblasts were cultured in either minimal media or alongside HT-29 CRC cancer cells. 6-different TGF-β inhibitors were added alongside TGF-β [1 ng/ml]ligand. […] (B) This is most apparent comparing the effects of three TGF-β inhibitors with varying selectivity.
(§2) In brief, monocultures of BJ or CCD18-Co fibroblasts were stimulated with TGF-β for 48 hours in the presence of serial dilutions of each TGF-β inhibitor and fibroblast activation was assessed by immunofluorescence using αSMA and CD248. The probability of fibroblast activation was assessed by a machine learning model, Multiple Instance Learning (MIL) trained on unstimulated fibroblasts (no drug, no TGF-β) as a negative control, and TGF-β stimulated fibroblasts (with vehicle control) as positive control. For co-culture comparisons, the same fibroblasts were grown in the presence of either HCT 116 cells or HT-29 cells and treated with the same serial dilutions of small molecule TGF-β. For these co-cultures, the addition of exogenous TGF-β is not required as the cancer cells secrete sufficient TGF-β for maximal fibroblast activation. […] This observation was confirmed by CellProfiler analysis where individual fibroblasts were segmented and αSMA and stress-fiber intensity was quantified (FIG. 2A).
We took an mAb inhibitor of TGFBR2, LY3022859, and assessed the performance of this inhibitor in co-culture alongside SIS3 and […], (FIG. 2 B). […] In contrast, both LY364947 and SIS3 were active at identical doses to those used in the previous test. Again, exogenous TGF-β was dispensable for this effect.

[2] = system: BJ or CCD18-Co fibroblasts; assay: TGF-β pathway inhibitors in TGF-β stimulated fibroblast monocultures (αSMA/CD248 immunofluorescence, MIL model); details: 48 hours
Description: as §1
We then tested the relative potency of a panel of TGF-β pathway inhibitors in monoculture fibroblasts stimulated with TGF-β compared to co-culture with CRC cells that produce their own, similar levels of TGF-β.
as §2, with “control.” for “control. For co-culture comparisons, the same fibroblasts were grown in the presence of either HCT 116 cells or HT-29 cells and treated with the same serial dilutions of small molecule TGF-β. For these co-cultures, the addition of exogenous TGF-β is not required as the cancer cells secrete sufficient TGF-β for maximal fibroblast activation.”

[3] = system: fibroblasts (BJ, CCD18-Co); assay: Activin A, Activin B and TGF-β dose response for CAF induction in unstimulated fibroblasts; details: for IC50 values, 1 hr vs. 48 hr timepoints: BJ or CCD18-Co fibroblast mono-cultures in minimal media (N=2); for phenotypic changes in fibroblasts (SMAD2/3, phospho-CREB, ASMA, Endosialin): BJ-fibroblasts; for EC50 values (fibroblast induction into a CAF like state, composite machine learning score): depending on condition tested, BJ, CCD18-Co, 1 hr and 48 hr; for ASMA score (intensity and number of ASMA filaments) vs. TGF-β treatment: highest dose, 48 hours
Description: FIG. 3 Activin and TGF-β both induce a CAF phenotype in fibroblast cell-lines. […] B) Quantification of ASMA levels and plate coverage further reinforce these changes downstream of addition of both Activin and TGF-β. C) TGF-β and Activin A were added over a range of doses to BJ or CCD18-Co colon fibroblasts grown as mono-cultures in minimal media (N=2). Cells were stained for Actin, Endosialin/CD248, DAPI/Nuclei, and αSMA. Machine Learning (Multiple Instance Learning) models were trained on the highest and lowest doses to generate dose-response curves.
To test whether Activin signaling could induce CAF activation similarly to TGF-β we added serial dilutions (3-fold) of recombinant Activin A ([…] max concentration) and Activin B ([…] max concentration) to unstimulated fibroblasts (BJ, CCD18-Co) to generate dose response curves for Activin A and B. A serial 3-fold dilution of TGF-β was also tested as a positive control ([…] max concentration). A number of high-content markers of CAF activation we used as endpoints. Namely, cells were probed for SMAD2/3 translocation to the nucleus and phospoCREB levels at 1 hr, as a marker of direct ACVR/TGFBR stimulation. ASMA and Endosialin levels were then probed at 48 hrs to quantify CAF induction levels following Activin and TGF-β stimulation. At the highest dose, at 1 hr we saw SMAD 2/3 nuclear translocation alongside phospho-CREB up-regulation, indicating receptor engagement and activity in both Activin and TGF-β treated conditions (FIG. 3A).

[4] = system: CCD-18Co normal colon fibroblasts; assay: Cytokine stimulation of fibroblast monocultures, CAF marker immunofluorescence; details: fibroblast monoculture serum-starved 24 hours, stimulated 48 hours, vs untreated fibroblasts
Description: A panel of 5 CAF markers were then used to stain the cultures and the expression levels of expression of the markers calculated from individual segmented fibroblasts.
First, we treated normal human fibroblasts with a panel of cytokines to induce activation, and then assessed CAF marker expression by immunofluorescence. Fibroblast monocultures were serum-starved for 24 hours then stimulated with TGF-β, TNF alpha, PDGFbb, acidic FGF or other cytokines for 48 hours. Cells were then fixed, permeabilized and stained with a panel of immunofluorescent CAF markers and imaged by high-content microscopy.

Compound	block of CAF activation in coculture (FIG. 2B) [1]	activity on CAF phenotypes in co-culture [1]	IC50 values, 1 hr vs. 48 hr timepoints [3]	phenotypic changes in fibroblasts (SMAD2/3, phospho-CREB, ASMA, Endosialin) [3]	EC50 values (fibroblast induction into a CAF like state, composite machine learning score) [3]	ASMA score (intensity and number of ASMA filaments) vs. TGF-β treatment [3]	also measured
c1ccc(-c2[nH]ncc2-c2ccnc3ccccc23)nc1 [LY364947]	blocks CAF activation at high doses	active					
Cc1cccc(-c2nn3c(c2-c2ccnc4ccc(C(N)=O)cc24)CCC3)n1 [LY2157299]							effectiveness in monoculture (inhibition of αSMA) [2]: effective; inhibition of αSMA in co-culture ([1]; even up to 100 μM): very little inhibition
COc1cc2c(cc1OC)CN(C(=O)/C=C/c1c(-c3ccccc3)n(C)c3ncccc13)CC2 [SIS3]	able to block CAF activation	active					response in co-culture among the inhibitors tested (rightward shift of IC50) [1]: best response; reduction of αSMA levels in coculture ([1]; % of the control, conditions with >5% cell death excluded): more than 50%
Activin A: recombinant Activin A			lower at the 48 hr timepoint in CCD18 colon fibroblasts	induce similar phenotypic changes	10 to 30 µg/mL	no difference	
Activin B: recombinant Activin B				induce similar phenotypic changes	4 to 9 µg/mL	no difference	
TGF-β: TGF-β ligand added as cytokine stimulus and positive control			lower for 1 hr timepoints vs. 48 hr timepoints	induce similar phenotypic changes			expression of alpha-smooth muscle actin (αSMA), podoplanin (PDPN) and CD248 [4]: increased expression
